Data reported in PubChem BioAssay (NCI).
Values joined by “and” are separate entries in the source; they are usually repeats but may differ in a detail not shown here. Identical values can stand only once.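 The compound was tested at five concentrations on cells cultured in 96-well plates, with a 48-hour exposure period. The concentration for full growth arrest is given as TGI.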

What was measured:
Assay in all cases: inhibition of tumour cell growth, NCI panel, 48 h
[1] = test system: MDA-MB-231 breast
[2] = test system: 786-0 renal
[3] = test system: NCI/ADR-RES ovarian
[4] = test system: HCC-2998 colon
[5] = test system: SK-MEL-2 melanoma
[6] = test system: MDA-N
[7] = test system: UO-31 renal
[8] = test system: SR leukemia
[9] = test system: MALME-3M melanoma
[10] = test system: RXF 393 renal

CC(C)SC(C)(NC(=O)C1C(C)(C)CCC1(C)C)C(=O)O (centres undefined)
TGI [1]: > 100 µM | TGI [2]: > 100 µM | TGI [3]: > 100 µM | TGI [4]: > 100 µM | TGI [5]: > 100 µM | TGI [6]: > 100 µM | TGI [7]: > 100 µM | TGI [8]: > 100 µM

O=c1c(SSc2coc3cc(F)ccc3c2=O)coc2cc(F)ccc12
TGI [1]: 37.1 µM | TGI [2]: 21.6 µM | TGI [3]: 78.8 µM | TGI [4]: 35.6 µM | TGI [6]: 34.3 µM | TGI [9]: > 100 µM | TGI [10]: > 100 µM | TGI [7]: 52.7 µM | TGI [8]: > 100 µM

CCCCc1c(C(=O)OC(C)(C)C)cc(C#Cc2cc(C(=O)OC(C)(C)C)c(CCCC)c(C(=O)OC(C)(C)C)c2)cc1C(=O)OC(C)(C)C
TGI [1]: > 100 µM | TGI [2]: > 100 µM | TGI [3]: > 100 µM | TGI [4]: > 100 µM | TGI [5]: > 100 µM | TGI [6]: > 100 µM | TGI [9]: > 100 µM | TGI [7]: > 100 µM

CC1(C)[C@@H](Cn2cnc3c(N)ncnc32)CC[C@@]1(C)CO
TGI [1]: > 100 µM | TGI [2]: > 100 µM | TGI [3]: > 100 µM | TGI [4]: > 100 µM | TGI [6]: > 100 µM | TGI [9]: > 100 µM | TGI [10]: > 100 µM | TGI [7]: > 100 µM | TGI [8]: 76.8 µM

O=C(Nc1cccc(C(F)(F)F)c1)O/N=C(/Cl)CCl
TGI [1]: 39 µM | TGI [2]: > 100 µM | TGI [3]: > 100 µM | TGI [4]: > 100 µM | TGI [5]: > 100 µM | TGI [6]: > 100 µM | TGI [9]: > 100 µM | TGI [7]: > 100 µM | TGI [8]: 62.8 µM

CNc1ccc(-c2nc3cc(C)ccc3o2)cc1
TGI [1]: > 100 µM | TGI [2]: > 100 µM | TGI [3]: > 100 µM | TGI [4]: > 100 µM | TGI [5]: > 100 µM | TGI [6]: > 100 µM | TGI [9]: > 100 µM | TGI [10]: 79.8 µM | TGI [7]: > 100 µM

Clc1ccc(Cc2nc3ccc(CCN4CCN(c5ccccc5)CC4)cc3[nH]2)cc1
TGI [1]: 27.3 µM | TGI [2]: 23.1 µM | TGI [3]: 51.6 µM | TGI [5]: 30.6 µM | TGI [6]: 30.6 µM | TGI [9]: 32.9 µM | TGI [10]: 19.1 µM | TGI [7]: 20.3 µM | TGI [8]: 36 µM

O=C1NC(N/N=C\C(O)C(O)C(O)CO)=N/C1=C/c1ccc(Cl)cc1 (centres undefined)
TGI [1]: > 100 µM | TGI [2]: > 100 µM | TGI [3]: > 100 µM | TGI [5]: > 100 µM | TGI [6]: > 100 µM | TGI [9]: 80.2 µM and > 100 µM | TGI [10]: > 100 µM | TGI [7]: > 100 µM

N#Cc1c(SCc2ccccc2)nc(-c2ccccc2)[nH]c1=S
TGI [1]: > 100 µM | TGI [2]: 48 µM | TGI [3]: 67.4 µM | TGI [4]: 39.8 µM | TGI [5]: 32.4 µM | TGI [6]: 67.1 µM | TGI [9]: > 100 µM | TGI [10]: 44.9 µM | TGI [7]: 35 µM

CN(C(=O)Cc1ccc(Cl)c(Cl)c1)[C@H]1CCCC[C@@H]1[N+]1(C)CCCC1
TGI [1]: > 100 µM | TGI [2]: > 100 µM | TGI [3]: > 100 µM | TGI [5]: > 100 µM | TGI [6]: > 100 µM | TGI [9]: > 100 µM | TGI [7]: > 100 µM | TGI [8]: > 100 µM

COc1cc2c(c(OC)c1OC)-c1ccc(SC)c(=O)cc1[C@@H](OC(C)=O)CC2
TGI [1]: > 100 µM | TGI [2]: > 100 µM | TGI [9]: > 100 µM | TGI [10]: > 100 µM | TGI [7]: > 52.5 µM | TGI [8]: > 100 µM

O=C(O)CCCCCOc1cccnc1/C=N/NC1=NCCN1
TGI [2]: > 100 µM | TGI [4]: > 100 µM | TGI [5]: > 100 µM | TGI [9]: > 100 µM | TGI [10]: > 100 µM | TGI [7]: > 100 µM | TGI [8]: > 100 µM
